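How tested: cells in 96-well plates exposed to compound for 48 hours at five concentrations. GI50 = concentration required for 50% inhibition of growth.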 Active and inactive are the calls of the source. Cut-off read from the data, not from the text of the source: active = GI50 up to about 1.1 µM and inactive = higher.
How the values were obtained:
Assay in all cases: NCI tumour cell line growth inhibition, 48 h
DMS-114 = tested on: DMS-114
BT-549 = tested on: BT-549
DLD-1 = tested on: DLD-1
M19-MEL = tested on: M19-MEL
RXF 631 = tested on: RXF 631
KM-20L2 = tested on: KM-20L2
Hs-578T = tested on: Hs-578T
LXFL 529 = tested on: LXFL 529
DMS-273 = tested on: DMS-273

| SMILES | GI50 (DMS-114) | GI50 (BT-549) | GI50 (DLD-1) | GI50 (M19-MEL) | GI50 (RXF 631) | GI50 (KM-20L2) | GI50 (Hs-578T) | GI50 (LXFL 529) | GI50 (DMS-273) |
| --- | --- | --- | --- | --- | --- | --- | --- | --- | --- |
| COc1c(C=O)c2c(c(OC)c1OC)-c1ccc(OC)c(=O)cc1[C@@H](NC(C)=O)CC2 | < 0.0146 µM (active) | 21.1 µM (inactive) | 0.0614 µM (active) | 0.0764 µM (active) | 0.229 µM (active) | 0.0364 µM (active) | < 0.01 µM (active) | 0.0191 µM (active) | 0.029 µM (active) |
| Nc1ccc(C(=O)N/C(=C\c2ccc3c(c2)OCO3)c2nc3ccc4c(c3[nH]2)C(=O)c2ccccc2C4=O)cc1 | 28.2 µM (inactive) | – | 9.82 µM (inactive) | 38.2 µM (inactive) | 37.3 µM (inactive) | 59.6 µM (inactive) | – | 30.5 µM (inactive) | 23.6 µM (inactive) |
| CC(C)(C)c1cc(O)c2c(c1O)C(=O)CCC2 | 20.3 µM (inactive) | – | 37.9 µM (inactive) | 30.5 µM (inactive) | 57.7 µM (inactive) | 40.1 µM (inactive) | – | 34.8 µM (inactive) | 34.8 µM (inactive) |
| C[C@]12CCC3[C@@H](CC[C@@H]4c5nonc5CC[C@]34C)C1CCC(=O)N2 (stereo not given in full) | – | – | – | > 100 µM (inactive) | > 100 µM (inactive) | > 100 µM (inactive) | – | > 100 µM (inactive) | > 100 µM (inactive) |
| Nc1nc(N)c(-c2ccccc2)c(C(=O)Nc2nccs2)n1 | > 100 µM (inactive) | – | > 100 µM (inactive) | > 100 µM (inactive) | > 100 µM (inactive) | > 100 µM (inactive) | – | > 100 µM (inactive) | – |
| O=C(NN1C(=O)CS(=O)(=O)C1c1cccc(F)c1)c1ccncc1 (stereo not given) | > 100 µM (inactive) | – | > 100 µM (inactive) | – | > 100 µM (inactive) | – | – | > 100 µM (inactive) | > 100 µM (inactive) |
| Cc1ccc(Nc2nc(C)c(C(/C=C/c3ccc4c(c3)OCO4)=N/Nc3ccc([N+](=O)[O-])cc3[N+](=O)[O-])s2)c([N+](=O)[O-])c1 | 13.3 µM (inactive) | – | 27.6 µM (inactive) | 59.7 µM (inactive) | 42.5 µM (inactive) | 33.9 µM (inactive) | – | 6.03 µM (inactive) | 25.9 µM (inactive) |
| COc1cc(C(C)c2cc3c(cc2OCCNC(=O)COc2cc4c(cc2C(C)c2cc(OC)c(OC)c(OC)c2)OCO4)OCO3)cc(OC)c1OC (stereo not given) | 26.9 µM (inactive) | – | > 100 µM (inactive) | 80.2 µM (inactive) | 86.3 µM (inactive) | > 100 µM (inactive) | – | 44.2 µM (inactive) | 75.9 µM (inactive) |
| CCc1cccc(CC)c1NC(=S)NC(=O)c1ccc(Br)cc1 | 28.2 µM (inactive) | – | 34.9 µM (inactive) | 35.2 µM (inactive) | > 100 µM (inactive) | 47.5 µM (inactive) | 3.76 µM (inactive) | 43.1 µM (inactive) | 49 µM (inactive) |
| COc1cc2c(cc1O)C(C)Cc1cc3c(cc1N(C)CC2)OCO3 (stereo not given) | 3.54 µM (inactive) | – | 4.16 µM (inactive) | 5.81 µM (inactive) | 18.7 µM (inactive) | 12.4 µM (inactive) | – | 5.41 µM (inactive) | 2.87 µM (inactive) |
| CCC(=O)OC[n+]1ccc2c(C)c3[nH]c4ccc(OC)cc4c3c(C)c2c1 | 0.104 µM (active) | – | 0.0435 µM (active) | 0.266 µM (active) | 0.0843 µM (active) | 0.117 µM (active) | – | 0.0582 µM (active) | – |
| COc1ccc(C(=O)OC2C=COC(C)C2OC(=O)c2ccc(OC)cc2)cc1 (stereo not given) | 17.5 µM (inactive) | – | 16.4 µM (inactive) | 30.7 µM (inactive) | 26.4 µM (inactive) | 27.6 µM (inactive) | – | 14.5 µM (inactive) | 23.3 µM (inactive) |
| CC(=O)N(C)c1ccc2c(ccc[n+]2[O-])c1[N+](=O)[O-] | > 100 µM (inactive) | – | > 100 µM (inactive) | > 100 µM (inactive) | > 100 µM (inactive) | > 100 µM (inactive) | – | > 100 µM (inactive) | > 100 µM (inactive) |
| CN(C)CCNC(=O)c1cccc2nc3c(Cl)cccc3nc12 | 3.57 µM (inactive) | – | 4.43 µM (inactive) | 2.96 µM (inactive) | 6.92 µM (inactive) | 5.52 µM (inactive) | – | 9.84 µM (inactive) | 5.09 µM (inactive) |
| N#CC(C#N)=C(N)/C(C#N)=C/c1ccc(O)c(O)c1 | 25.1 µM (inactive) | > 100 µM (inactive) | 71.3 µM (inactive) | > 100 µM (inactive) | – | 25.1 µM (inactive) | 48.4 µM (inactive) | 40.7 µM (inactive) | 59.2 µM (inactive) |
| CCCCCCCCCCCCCCCCCC(=O)NCC(COP(=O)([O-])OCC[N+](C)(C)C)OC (stereo not given) | 10.6 µM (inactive) | – | 2.59 µM (inactive) | 2.43 µM (inactive) | 13.4 µM (inactive) | 2.23 µM (inactive) | – | 6.78 µM (inactive) | 1.58 µM (inactive) |

From ChEMBL document CHEMBL1201862, “PubChem BioAssay data set” (2004)
